Assay results from ChEMBL document CHEMBL1201862, “PubChem BioAssay data set” (2004).
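Method: 48-hour compound exposure of cells in 96-well plates, five concentrations, linear interpolation of endpoints. Abbreviation: GI50, concentration required for 50% inhibition of growth.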 Active and inactive are the calls of the source. No stated cut-off is given here; in the data, active = GI50 up to about 1.1 µM and inactive = higher.

Columns and labels:
Assay in all cases: NCI-60 cell line screen, 48 h
786-0 = tested on: 786-0
A498 = tested on: A498
A549 = tested on: A549
ACHN = tested on: ACHN
BT-549 = tested on: BT-549
CAKI-1 = tested on: CAKI-1
CCRF-CEM = tested on: CCRF-CEM
COLO 205 = tested on: COLO 205
DU-145 = tested on: DU-145
EKVX = tested on: EKVX
HCC 2998 = tested on: HCC 2998
HCT-116 = tested on: HCT-116
HCT-15 = tested on: HCT-15
HOP-62 = tested on: HOP-62
HOP-92 = tested on: HOP-92
HT-29 = tested on: HT-29
Hs-578T = tested on: Hs-578T
IGROV-1 = tested on: IGROV-1
KM12 = tested on: KM12
LOX IMVI = tested on: LOX IMVI
M14 = tested on: M14
MCF7 = tested on: MCF7
MDA-MB-231 = tested on: MDA-MB-231
MDA-MB-435 = tested on: MDA-MB-435
MDA-N = tested on: MDA-N
MOLT-4 = tested on: MOLT-4
Malme-3M = tested on: Malme-3M
NCI-H226 = tested on: NCI-H226
NCI-H23 = tested on: NCI-H23
NCI-H522 = tested on: NCI-H522
NCI/ADR-RES = tested on: NCI/ADR-RES
OVCAR-3 = tested on: OVCAR-3
OVCAR-4 = tested on: OVCAR-4
OVCAR-5 = tested on: OVCAR-5
OVCAR-8 = tested on: OVCAR-8
PC-3 = tested on: PC-3
RPMI-8226 = tested on: RPMI-8226
RXF 393 = tested on: RXF 393
SF-268 = tested on: SF-268
SF-295 = tested on: SF-295
SF-539 = tested on: SF-539
SK-MEL-28 = tested on: SK-MEL-28
SK-MEL-2 = tested on: SK-MEL-2
SK-MEL-5 = tested on: SK-MEL-5
SK-OV-3 = tested on: SK-OV-3
SNB-19 = tested on: SNB-19
SNB-75 = tested on: SNB-75
SW-620 = tested on: SW-620
T47D = tested on: T47D
TK-10 = tested on: TK-10
U-251 = tested on: U-251
UACC-257 = tested on: UACC-257
UACC-62 = tested on: UACC-62
UO-31 = tested on: UO-31
HL-60 = tested on: HL-60
NCI-H460 = tested on: NCI-H460
SN12C = tested on: SN12C
K562 = tested on: K562

O=c1[nH]cnc2c1sc1nc3ccccc3n12
GI50 (786-0): 67.5 µM (inactive)
GI50 (A498): 33.3 µM (inactive)
GI50 (A549): > 100 µM (inactive)
GI50 (ACHN): > 100 µM (inactive)
GI50 (BT-549): > 100 µM (inactive)
GI50 (CAKI-1): > 100 µM (inactive)
GI50 (CCRF-CEM): 55.6 µM (inactive)
GI50 (COLO 205): > 100 µM (inactive)
GI50 (DU-145): > 100 µM (inactive)
GI50 (EKVX): > 100 µM (inactive)
GI50 (HCC 2998): 73.3 µM (inactive)
GI50 (HCT-116): 70.3 µM (inactive)
GI50 (HCT-15): 80.9 µM
GI50 (HOP-62): > 100 µM (inactive)
GI50 (HOP-92): > 100 µM (inactive)
GI50 (HT-29): > 100 µM (inactive)
GI50 (Hs-578T): 51.6 µM (inactive)
GI50 (IGROV-1): 63.8 µM (inactive)
GI50 (KM12): 5.96 µM (inactive)
GI50 (LOX IMVI): 27.8 µM (inactive)
GI50 (M14): > 100 µM (inactive)
GI50 (MCF7): 76.4 µM (inactive)
GI50 (MDA-MB-231): > 100 µM (inactive)
GI50 (MDA-MB-435): > 100 µM (inactive)
GI50 (MDA-N): > 100 µM (inactive)
GI50 (MOLT-4): 90.6 µM (inactive)
GI50 (Malme-3M): > 100 µM (inactive)
GI50 (NCI-H226): > 100 µM (inactive)
GI50 (NCI-H23): > 100 µM (inactive)
GI50 (NCI-H522): > 100 µM (inactive)
GI50 (NCI/ADR-RES): > 100 µM (inactive)
GI50 (OVCAR-3): > 100 µM (inactive)
GI50 (OVCAR-4): > 100 µM (inactive)
GI50 (OVCAR-5): > 100 µM (inactive)
GI50 (OVCAR-8): > 100 µM (inactive)
GI50 (PC-3): 88.5 µM (inactive)
GI50 (RPMI-8226): > 100 µM (inactive)
GI50 (RXF 393): 16.3 µM (inactive)
GI50 (SF-268): > 100 µM (inactive)
GI50 (SF-295): > 100 µM (inactive)
GI50 (SF-539): 61.9 µM (inactive)
GI50 (SK-MEL-28): > 100 µM (inactive)
GI50 (SK-MEL-2): 55.8 µM (inactive)
GI50 (SK-MEL-5): > 100 µM (inactive)
GI50 (SK-OV-3): 58.1 µM (inactive)
GI50 (SNB-19): > 100 µM (inactive)
GI50 (SNB-75): 49.3 µM (inactive)
GI50 (SW-620): > 100 µM (inactive)
GI50 (T47D): > 100 µM (inactive)
GI50 (TK-10): 70 µM (inactive)
GI50 (U-251): > 100 µM (inactive)
GI50 (UACC-257): > 100 µM (inactive)
GI50 (UACC-62): 30.5 µM (inactive)
GI50 (UO-31): 42.3 µM (inactive)

COc1cc([C@@H]2c3cc4c(cc3[C@@H](c3c(O)cc(O)c5c3O[C@H](c3ccc(O)c(O)c3)[C@H](OC(=O)c3cc(O)c(O)c(O)c3)C5)[C@H]3COC(=O)[C@H]23)OCO4)cc(OC)c1O
GI50 (786-0): 22.5 µM (inactive)
GI50 (A498): 74.5 µM (inactive)
GI50 (A549): 29.4 µM (inactive)
GI50 (ACHN): 53.7 µM (inactive)
GI50 (BT-549): > 100 µM (inactive)
GI50 (CAKI-1): 76.6 µM (inactive)
GI50 (CCRF-CEM): 24.4 µM (inactive)
GI50 (COLO 205): 28.7 µM (inactive)
GI50 (DU-145): 32 µM (inactive)
GI50 (EKVX): 44.7 µM (inactive)
GI50 (HCC 2998): 33.8 µM (inactive)
GI50 (HCT-116): 23.7 µM (inactive)
GI50 (HCT-15): 40.8 µM
GI50 (HL-60): 19.5 µM (inactive)
GI50 (HOP-62): 51.8 µM (inactive)
GI50 (HOP-92): 58.2 µM (inactive)
GI50 (HT-29): 25 µM (inactive)
GI50 (Hs-578T): 96.4 µM (inactive)
GI50 (IGROV-1): 57.7 µM (inactive)
GI50 (KM12): 32 µM (inactive)
GI50 (LOX IMVI): 29.2 µM (inactive)
GI50 (M14): 23.4 µM (inactive)
GI50 (MCF7): 42 µM (inactive)
GI50 (MDA-MB-231): 57.8 µM (inactive)
GI50 (MDA-MB-435): 22.6 µM (inactive)
GI50 (MDA-N): 18.4 µM (inactive)
GI50 (MOLT-4): 33.7 µM (inactive)
GI50 (Malme-3M): > 100 µM (inactive)
GI50 (NCI-H23): 69.2 µM (inactive)
GI50 (NCI-H460): 32.5 µM (inactive)
GI50 (NCI-H522): 24 µM (inactive)
GI50 (NCI/ADR-RES): 54.8 µM (inactive)
GI50 (OVCAR-3): 28.2 µM (inactive)
GI50 (OVCAR-4): > 100 µM (inactive)
GI50 (OVCAR-5): 39.4 µM (inactive)
GI50 (OVCAR-8): 35.6 µM (inactive)
GI50 (PC-3): 42.8 µM (inactive)
GI50 (RPMI-8226): 26.6 µM (inactive)
GI50 (RXF 393): 59.4 µM (inactive)
GI50 (SF-268): 30.8 µM (inactive)
GI50 (SF-295): 39.3 µM (inactive)
GI50 (SF-539): 24.1 µM (inactive)
GI50 (SK-MEL-28): 79.8 µM (inactive)
GI50 (SK-MEL-2): 57.9 µM (inactive)
GI50 (SK-MEL-5): 25.8 µM (inactive)
GI50 (SK-OV-3): 44.1 µM (inactive)
GI50 (SN12C): 22.3 µM (inactive)
GI50 (SNB-19): 30.1 µM (inactive)
GI50 (SW-620): 44.4 µM (inactive)
GI50 (T47D): > 100 µM (inactive)
GI50 (TK-10): 92.3 µM (inactive)
GI50 (U-251): 46.5 µM (inactive)
GI50 (UACC-257): > 100 µM (inactive)
GI50 (UACC-62): 98.9 µM (inactive)

O=C(O)CCC(NC(=O)/C(=C/c1ccccc1)NC(=O)c1ccccc1)C(=O)O (stereo not given)
GI50 (786-0): > 100 µM (inactive)
GI50 (A498): > 100 µM (inactive)
GI50 (A549): > 100 µM (inactive)
GI50 (ACHN): > 100 µM (inactive)
GI50 (BT-549): > 100 µM (inactive)
GI50 (CAKI-1): > 100 µM (inactive)
GI50 (CCRF-CEM): > 100 µM (inactive)
GI50 (COLO 205): > 100 µM (inactive)
GI50 (DU-145): > 100 µM (inactive)
GI50 (EKVX): > 100 µM (inactive)
GI50 (HCC 2998): > 100 µM (inactive)
GI50 (HCT-116): > 100 µM (inactive)
GI50 (HCT-15): > 100 µM
GI50 (HL-60): > 100 µM (inactive)
GI50 (HOP-62): > 100 µM (inactive)
GI50 (HOP-92): > 100 µM (inactive)
GI50 (HT-29): > 100 µM (inactive)
GI50 (Hs-578T): > 100 µM (inactive)
GI50 (IGROV-1): > 100 µM (inactive)
GI50 (K562): > 100 µM (inactive)
GI50 (KM12): > 100 µM (inactive)
GI50 (LOX IMVI): > 100 µM (inactive)
GI50 (M14): > 100 µM (inactive)
GI50 (MCF7): > 100 µM (inactive)
GI50 (MDA-MB-231): > 100 µM (inactive)
GI50 (MDA-MB-435): > 100 µM (inactive)
GI50 (MDA-N): > 100 µM (inactive)
GI50 (MOLT-4): > 100 µM (inactive)
GI50 (Malme-3M): > 100 µM (inactive)
GI50 (NCI-H226): > 100 µM (inactive)
GI50 (NCI-H23): > 100 µM (inactive)
GI50 (NCI-H460): > 100 µM (inactive)
GI50 (NCI-H522): > 100 µM (inactive)
GI50 (NCI/ADR-RES): > 100 µM (inactive)
GI50 (OVCAR-3): > 100 µM (inactive)
GI50 (OVCAR-4): > 100 µM (inactive)
GI50 (OVCAR-5): > 100 µM (inactive)
GI50 (OVCAR-8): > 100 µM (inactive)
GI50 (PC-3): > 100 µM (inactive)
GI50 (RPMI-8226): > 100 µM (inactive)
GI50 (RXF 393): > 100 µM (inactive)
GI50 (SF-268): > 100 µM (inactive)
GI50 (SF-295): > 100 µM (inactive)
GI50 (SF-539): > 100 µM (inactive)
GI50 (SK-MEL-28): > 100 µM (inactive)
GI50 (SK-MEL-2): > 100 µM (inactive)
GI50 (SK-MEL-5): > 100 µM (inactive)
GI50 (SK-OV-3): > 100 µM (inactive)
GI50 (SN12C): > 100 µM (inactive)
GI50 (SNB-19): > 100 µM (inactive)
GI50 (SNB-75): > 100 µM (inactive)
GI50 (SW-620): > 100 µM (inactive)
GI50 (T47D): > 100 µM (inactive)
GI50 (TK-10): > 100 µM (inactive)
GI50 (UACC-257): > 100 µM (inactive)
GI50 (UACC-62): > 100 µM (inactive)
GI50 (UO-31): > 100 µM (inactive)
